According to patent US10610863B2, “Automatic microfluidic system for antibiotic susceptibility testing and method of operating thereof” (NATIONAL TSING HUA UNIVERSITY, priority 2016, dated 2020):
In brackets after ≈: the same amount, converted by molar mass.

What was measured:
[1] = tested on: vancomycin-intermediate Staphylococcus aureus (VISA); assay: Microfluidic system of Embodiment 2 combination susceptibility testing (Test 6); assay type: cell-based; conditions: for minimum inhibitory concentration alone (denominator of the FIC equation): antibiotic alone; for minimum inhibitory concentration in combination (vancomycin + ceftazidime): colorimetric, 24 hours of incubation at 37° C.
Protocol: In Test 6, vancomycin-intermediate Staphylococcus aureus (VISA) is designed as a bacterial suspension to be tested, and two antibiotic solutions, that is, vancomycin and ceftazidime, with different concentrations are prepared. In details, the two antibiotic solutions are transported, separately, to each of the second reaction chambers 124a′, 124b′, 124c′, 124d′, 124e′, 124f′, 124g′, 124h′, 124i′, 124j′, 124k′ to mix with the broth and the bacterial suspension to be tested. Then, concentrations of vancomycin of the second reaction chambers 124a′, 124b′, 124c′, 124d′, 124e′, 124f′, 124g′, 124h′, 124i′, 124j′, 124k′ are 4 μg/mL, 6 μg/mL, 4 μg/mL, 4 μg/mL, 4 μg/mL, 0 μg/mL, 6 μg/mL, 6 μg/mL, 2 μg/mL, 2 μg/mL and 2 μg/mL, respectively. Furthermore, concentrations of ceftazidime of the second reaction chambers 124a′, 124b′, 124c′, 124d′, 124e′, 124f′, 124g′, 124h′, 124i′, 124j′, 124k′ are 2 μg/mL, 2 μg/mL, 4 μg/mL, 6 μg/mL, 0 μg/mL, 4 μg/mL, 6 μg/mL, 4 μg/mL, 6 μg/mL, 4 μg/mL and 2 μg/mL, respectively. In addition, a proper pH indicator, such as phenol red, is added to the broth in Test 6. After incubation at 37° C. for 24 hours, results can be visually observed.
In particular, incubation times from FIG. 10(a) to FIG. 10(d) are 0 hour, 10 hours, 17 hours and 24 hours.
Then, a fractional inhibitory concentration index of the two antibiotic solutions for the vancomycin-intermediate Staphylococcus aureus can be derived from the following equation: FICindex=FICA+FICB. FICA is calculated as a quotient between the minimum inhibitory concentration of vancomycin in combination and the minimum inhibitory concentration of vancomycin alone, and FICB is calculated as a quotient between the minimum inhibitory concentration of ceftazidime in combination and the minimum inhibitory concentration of ceftazidime alone. In particular, the combination can be determined as synergic when the fractional inhibitory concentration index is ≤0.5, as antagonistic when the fractional inhibitory concentration index is >4. The results between synergy and antagonistic tendency are defined as additive or indifferent.

[2] = tested on: standard strain Enterococcus 29212 (ATCC); assay: Microfluidic system of Embodiment 1 antibiotic susceptibility testing (Test 1); assay type: cell-based, E. faecalis; conditions: for MIC: Enterococcus
Text: In Test 1, a standard strain Enterococcus 29212, which includes E. faecalis and is purchased from American type culture collection (ATCC), is designed as a bacterial suspension to be tested. […] In particular, the antibiotic solution of Test 1 is a vancomycin-containing solution.
As to the determination of the minimum inhibitory concentration, a quantitative dye can be added into each of the first reaction chamber 122, the second reaction chamber 124a, the second reaction chamber 124b, the second reaction chamber 124c, and the second reaction chamber 124d as mentioned above. After few minutes, an upright fluorescent microscope is applied for determining fluorescent staining results as shown in FIG. 8. In details, the fluorescent staining results of the first mixing solution and each of the second mixing solutions (that is, the concentration of the antibiotic solution is 0 μg/mL, 2 μg/mL, 4 μg/mL, 6 μg/mL and 8 μg/mL, respectively) are shown, separately, from FIG. 8 (a) to FIG. 8 (e).
Alternatively, a proper pH indicator, such as phenol red, also can be added to the broth as a determination method. In details, a pH-dependent colorimetric broth, which includes brain heart infusion (BHI) media supplemented with 1% glucose and 0.05% phenol red, and antibiotics, are loaded. Then, the standard strain Enterococcus 29212 is loaded as the bacteria suspension to be tested herein for the antibiotic susceptibility testing. […] In particular, incubation times from FIG. 9(a) to FIG. 9(f) are 0 hour, 4 hours, 10 hours, 20 hours, 23 hours, and 24 hours.
The pH-dependent colorimetric broth will be transformed into an acidic pH due to bacterial growth, and the phenol red can be visually observed through color change from red to yellow.

E. gallinarum (vanC1) [3] = assay: E-Test MIC, vancomycin-resistant Enterococcus vanC1 (Test 4); assay type: cell-based; conditions: incubation time 24 hours
Protocol: (§1) In Test 4, the antibiotic solution, the dilution mode and the operation of the microfluidic system are the as Test 1. However, a bacterial suspension to be tested of Test 4 is the bacterial suspension containing E. gallinarum (vancomycin-resistant Enterococcus). In particular, a genotype of the vancomycin-resistant Enterococcus in Test 4 is vanC1, and a minimum inhibitory concentration thereof is determined by the conventional method (E-Test®) to be 3 μg/mL. The incubation time and the determined minimum inhibitory concentration of E. gallinarum (vanC1) in Test 4 are listed in Table 1.

E. faecium (vanA) [4] = assay: Microfluidic system of Embodiment 1 antibiotic susceptibility testing (Test 2); assay type: cell-based; conditions: Enterococcus faecium, incubation time 24 hours
Protocol: (§2) Briefly, five different concentrations of antibiotic solutions (0 μg/mL, 2 μg/mL, 4 μg/mL, 6 μg/mL, and 8 μg/mL) are prepared, separately, by the microfluidic system of Embodiment 1 of the present disclosure with the proportional dilution mode. Then, the antibiotic solutions are mixed with the bacteria suspensions at a final concentration of 5×10^5 CFU/mL. The determination of the minimum inhibitory concentration is read after incubation at 37° C. for 24 hours.
(§3) Alternatively, a proper pH indicator, such as phenol red, also can be added to the broth as a determination method. In details, a pH-dependent colorimetric broth, which includes brain heart infusion (BHI) media supplemented with 1% glucose and 0.05% phenol red, and antibiotics, are loaded. Then, the standard strain Enterococcus 29212 is loaded as the bacteria suspension to be tested herein for the antibiotic susceptibility testing. Please refer to FIG. 9, which is colorimetric results of the antibiotic susceptibility testing of the standard strain Enterococcus 29212 diluted by the microfluidic chip of FIG. 1. […]
(§4) In Test 2, the antibiotic solution, the dilution mode and the operation of the microfluidic system are the as Test 1. […] In particular, a genotype of the vancomycin-resistant Enterococcus in Test 2 is vanA, and a minimum inhibitory concentration thereof is determined by the conventional method (E-Test®) to be 32 μg/mL.

E. gallinarum (vanC1) [5] = assay: Microfluidic system of Embodiment 1 antibiotic susceptibility testing (Test 4); assay type: cell-based; conditions: Enterococcus gallinarum, incubation time 16 hours
Protocol: as §2
as §3, with “testing.” for “testing. Please refer to FIG. 9, which is colorimetric results of the antibiotic susceptibility testing of the standard strain Enterococcus 29212 diluted by the microfluidic chip of FIG. 1.”
as §1, with “However, a bacterial suspension to be tested of Test 4 is the bacterial suspension containing E. gallinarum (vancomycin-resistant Enterococcus).” left out

E. faecium (vanB) [6] = assay: E-Test MIC, vancomycin-resistant Enterococcus vanB (Test 3); assay type: cell-based; conditions: incubation time 24 hours
Protocol: as §1, with “3,” for “4,”, “3” for “4”, “faecium” for “gallinarum”, “vanB,” for “vanC1,”, “8” for “3”, “μg/mL.” for “μg/mL. The incubation time and the determined minimum inhibitory concentration of E. gallinarum (vanC1) in Test 4 are listed in Table 1.”

E. casseliflavus (vanC2) [7] = assay: E-Test MIC, vancomycin-resistant Enterococcus vanC2 (Test 5); assay type: cell-based; conditions: 24 h, read-out: MIC (E-test)
Protocol: (§5) In Test 5, the antibiotic solution, the dilution mode and the operation of the microfluidic system are the as Test 1. However, a bacterial suspension to be tested of Test 5 is the bacterial suspension containing E. casseliflavus (vancomycin-resistant Enterococcus). In particular, a genotype of the vancomycin-resistant Enterococcus in Test 4 is vanC2, and a minimum inhibitory concentration thereof is determined by the conventional method (E-Test®) to be 4 μg/mL. The incubation time and the determined minimum inhibitory concentration of E. casseliflavus (vanC2) in Test 5 are listed in Table 1.

[8] = tested on: standard strain Enterococcus 29212 (ATCC); assay: E-Test MIC, standard strain Enterococcus 29212 (Test 1); assay type: cell-based, E. faecalis; conditions: incubation time 24 hours
Protocol: In Test 1, a standard strain Enterococcus 29212, which includes E. faecalis and is purchased from American type culture collection (ATCC), is designed as a bacterial suspension to be tested. The standard strain Enterococcus 29212 is susceptible Enterococcus, and a minimum inhibitory concentration of the standard strain Enterococcus 29212 detected by a clinical standard (i.e., E-Test®) is 4 μg/mL. In particular, the antibiotic solution of Test 1 is a vancomycin-containing solution.

E. faecium (vanA) [9] = assay: E-Test MIC, vancomycin-resistant Enterococcus vanA (Test 2); assay type: cell-based; conditions: incubation time 24 hours
Protocol: In Test 2, the antibiotic solution, the dilution mode and the operation of the microfluidic system are the as Test 1. However, a bacterial suspension to be tested of Test 2 is the bacterial suspension containing E. faecium (vancomycin-resistant Enterococcus). In particular, a genotype of the vancomycin-resistant Enterococcus in Test 2 is vanA, and a minimum inhibitory concentration thereof is determined by the conventional method (E-Test®) to be 32 μg/mL.

E. faecium (vanB) [10] = assay: Microfluidic system of Embodiment 1 antibiotic susceptibility testing (Test 3); assay type: cell-based; conditions: Enterococcus faecium, incubation time 19 hours
Protocol: as §2, §3
as §4, with “3,” for “2,”, “3” for “2”, “vanB,” for “vanA,”, “8” for “32”

E. casseliflavus (vanC2) [11] = assay: Microfluidic system of Embodiment 1 antibiotic susceptibility testing (Test 5); assay type: cell-based; conditions: Enterococcus casseliflavus, incubation time 17 hours
Protocol: as §2
as §3, with “testing.” for “testing. Please refer to FIG. 9, which is colorimetric results of the antibiotic susceptibility testing of the standard strain Enterococcus 29212 diluted by the microfluidic chip of FIG. 1.”
as §5, with “However, a bacterial suspension to be tested of Test 5 is the bacterial suspension containing E. casseliflavus (vancomycin-resistant Enterococcus).” left out

Row | Structure (SMILES) | minimum inhibitory concentration alone (denominator of the FIC equation) [1] | minimum inhibitory concentration in combination (vancomycin + ceftazidime) [1] [µg/mL] | susceptibility of the strain according to the CLSI guidelines [2] | MIC ([2]; 37° C. for 24 hours, live bacteria green fluorescence, read-out: minimum inhibitory concentration by fluorescent staining) [µg/mL] | MIC ([2]; colorimetric (phenol red), incubation time 20 hours, read-out: MIC (Microfluidic system of Embodiment 1)) [µg/mL] | MIC (Microfluidic system of Embodiment 1) ([2]; colorimetric (phenol red), incubation time 20 hours) [µg/mL] | MIC (E. gallinarum (vanC1) [3]) [µg/mL] | MIC (E. faecium (vanA) [4]) [µg/mL] | MIC (E. gallinarum (vanC1) [5]) [µg/mL] | MIC (E. faecium (vanB) [6]) [µg/mL] | MIC (E. casseliflavus (vanC2) [7]) [µg/mL] | MIC [8] [µg/mL] | MIC (E. faecium (vanA) [9]) [µg/mL] | MIC (E. faecium (vanB) [10]) [µg/mL] | MIC (E. casseliflavus (vanC2) [11]) [µg/mL]
1 | CC(C)(O/N=C(\C(=O)N[C@@H]1C(=O)N2C(C(=O)[O-])=C(C[n+]3ccccc3)CS[C@H]12)c1csc(N)n1)C(=O)O [ceftazidime] | > 256 | 2 |  |  |  |  |  |  |  |  |  |  |  |  | 
2 | CN[C@H](CC(C)C)C(=O)N[C@H]1C(=O)N[C@@H](CC(N)=O)C(=O)N[C@H]2C(=O)N[C@H]3C(=O)N[C@H](C(=O)N[C@H](C(=O)O)c4cc(O)cc(O)c4-c4cc3ccc4O)[C@H](O)c3ccc(c(Cl)c3)Oc3cc2cc(c3O[C@@H]2O[C@H](CO)[C@@H](O)[C@H](O)[C@H]2O[C@H]2C[C@](C)(N)[C@H](O)[C@H](C)O2)Oc2ccc(cc2Cl)[C@H]1O [vancomycin] | 3 | 4 | susceptible | 4 (≈ 2.76 µM) | 4 (≈ 2.76 µM) | 4 ± 0 | 3 (≈ 2.07 µM) | > 16 | 4 (≈ 2.76 µM) | 8 (≈ 5.52 µM) | 4 (≈ 2.76 µM) | 4 (≈ 2.76 µM) | 32 (≈ 22.1 µM) | 4 (≈ 2.76 µM) | 6 (≈ 4.14 µM)
